Active and inactive are the calls of the source. The calls are words filed in the database; no cut-off is given here.
Legend:
[1] = Apparent permeability of the compound across apical to basolateral side in human Caco-2 cells at 10 uM incubated for 120 mins assessed as drug recovery and measured by LC-MS/MS analysis
[2] = Apparent permeability of the compound across basolateral to apical side in human Caco-2 cells at 10 uM incubated for 120 mins assessed as drug recovery and measured by LC-MS/MS analysis
[3] = Apparent permeability of the compound across apical to basolateral side in human Caco-2 cells at 10 uM incubated for 120 mins and measured by LC-MS/MS analysis
[4] = Apparent permeability of the compound across basolateral to apical side in human Caco-2 cells at 10 uM incubated for 120 mins and measured by LC-MS/MS analysis
[5] = system: LNCaP C4-2B; test: Antiproliferative activity against human LNCaP C4-2B cells measured after 96 hrs by Cell Titer-Glo assay; type: functional, cell-based
[6] = system: LNCaP; test: Antiproliferative activity against human LNCaP cells measured after 96 hrs by Cell Titer-Glo assay; type: functional, cell-based
[7] = system: CWR22R; test: Antiproliferative activity against human 22Rv1 cells measured after 96 hrs by Cell Titer-Glo assay; type: functional, cell-based; details: 22Rv1, 96 h
[8] = Efflux ratio of apparent permeability from basolateral to apical side over apical to basolateral side in human Caco-2 cells at 10 uM incubated for 120 mins and measured by LC-MS/MS analysis
[9] = target: T1, Transcription intermediary factor 1-alpha (Homo sapiens, UniProt O15164); test: Inhibition of TRIM24 (unknown origin) measured alphascreen assay
T1 sequence (O15164 whole entry): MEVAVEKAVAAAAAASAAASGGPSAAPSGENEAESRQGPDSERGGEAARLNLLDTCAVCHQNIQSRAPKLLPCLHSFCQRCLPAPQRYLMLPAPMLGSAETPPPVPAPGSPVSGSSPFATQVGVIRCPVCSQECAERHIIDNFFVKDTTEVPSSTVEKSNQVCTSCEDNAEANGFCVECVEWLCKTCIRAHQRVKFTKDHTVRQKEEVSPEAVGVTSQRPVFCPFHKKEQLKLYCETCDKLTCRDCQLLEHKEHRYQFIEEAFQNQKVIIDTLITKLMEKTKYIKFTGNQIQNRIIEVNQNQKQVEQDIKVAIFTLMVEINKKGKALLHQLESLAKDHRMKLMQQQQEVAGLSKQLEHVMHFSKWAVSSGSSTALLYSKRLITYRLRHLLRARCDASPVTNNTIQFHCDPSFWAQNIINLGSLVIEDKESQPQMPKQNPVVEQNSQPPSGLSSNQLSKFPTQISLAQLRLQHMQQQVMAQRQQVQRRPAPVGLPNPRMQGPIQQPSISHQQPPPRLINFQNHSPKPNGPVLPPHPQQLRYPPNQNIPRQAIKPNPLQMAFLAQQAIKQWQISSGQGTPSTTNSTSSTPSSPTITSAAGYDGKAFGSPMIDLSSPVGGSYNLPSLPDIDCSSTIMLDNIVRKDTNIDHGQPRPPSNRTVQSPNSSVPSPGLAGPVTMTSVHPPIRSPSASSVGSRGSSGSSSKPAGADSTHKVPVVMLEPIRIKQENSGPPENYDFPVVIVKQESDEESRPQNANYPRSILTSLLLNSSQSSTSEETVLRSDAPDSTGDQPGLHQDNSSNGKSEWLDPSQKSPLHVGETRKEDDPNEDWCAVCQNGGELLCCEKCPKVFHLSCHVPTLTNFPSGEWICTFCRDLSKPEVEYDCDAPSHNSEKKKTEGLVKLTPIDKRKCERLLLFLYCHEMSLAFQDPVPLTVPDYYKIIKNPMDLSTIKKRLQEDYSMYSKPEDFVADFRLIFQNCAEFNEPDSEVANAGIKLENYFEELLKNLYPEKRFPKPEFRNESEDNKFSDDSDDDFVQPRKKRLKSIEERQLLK

[10] = target: T2, Peregrin (Homo sapiens, UniProt P55201); test: Inhibition of BRPF1 (unknown origin) measured alphascreen assay
T2 sequence (P55201 whole entry): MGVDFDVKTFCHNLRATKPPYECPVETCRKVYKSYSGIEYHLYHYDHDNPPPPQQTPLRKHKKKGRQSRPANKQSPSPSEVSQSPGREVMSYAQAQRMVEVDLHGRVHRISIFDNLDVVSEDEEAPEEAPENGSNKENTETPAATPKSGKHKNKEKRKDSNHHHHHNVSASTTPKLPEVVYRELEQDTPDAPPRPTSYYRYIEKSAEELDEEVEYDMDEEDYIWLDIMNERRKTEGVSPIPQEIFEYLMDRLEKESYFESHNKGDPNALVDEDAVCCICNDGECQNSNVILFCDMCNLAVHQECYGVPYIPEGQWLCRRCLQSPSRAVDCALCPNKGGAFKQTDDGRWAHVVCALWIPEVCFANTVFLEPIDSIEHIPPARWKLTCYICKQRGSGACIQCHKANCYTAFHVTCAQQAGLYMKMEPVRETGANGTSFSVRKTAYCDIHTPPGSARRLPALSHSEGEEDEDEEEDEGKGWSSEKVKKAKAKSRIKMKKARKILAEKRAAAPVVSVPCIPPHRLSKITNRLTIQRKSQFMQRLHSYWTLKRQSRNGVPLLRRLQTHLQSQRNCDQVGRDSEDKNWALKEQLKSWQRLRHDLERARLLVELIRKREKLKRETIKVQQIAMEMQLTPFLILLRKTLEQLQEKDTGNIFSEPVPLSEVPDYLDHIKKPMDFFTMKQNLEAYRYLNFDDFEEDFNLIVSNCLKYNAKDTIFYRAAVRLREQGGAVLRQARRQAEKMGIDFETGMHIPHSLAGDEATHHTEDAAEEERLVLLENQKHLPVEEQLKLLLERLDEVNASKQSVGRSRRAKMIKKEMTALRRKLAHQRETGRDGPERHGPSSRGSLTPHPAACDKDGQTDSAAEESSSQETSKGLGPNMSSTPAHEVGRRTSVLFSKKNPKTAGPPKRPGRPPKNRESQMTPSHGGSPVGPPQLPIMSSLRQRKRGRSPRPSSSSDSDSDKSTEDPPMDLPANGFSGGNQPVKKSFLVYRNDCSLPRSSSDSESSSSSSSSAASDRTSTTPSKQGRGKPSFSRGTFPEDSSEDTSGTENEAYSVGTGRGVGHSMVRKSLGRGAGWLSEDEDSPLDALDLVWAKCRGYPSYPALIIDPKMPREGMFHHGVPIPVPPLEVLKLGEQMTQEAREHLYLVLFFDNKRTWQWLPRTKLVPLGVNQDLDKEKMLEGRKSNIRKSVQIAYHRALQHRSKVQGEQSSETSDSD

[11] = system: LNCaP C4-2B; test: Inhibition of clonogenicity in human LNCaP C4-2B cells assessed as reduction in colony formation at 1 uM measured by crystal violet staining based analysis; type: functional
[12] = system: CWR22R; test: Inhibition of clonogenicity in human 22Rv1 cells assessed as reduction in colony formation at 1 uM measured by crystal violet staining based analysis; type: functional
[13] = system: CWR22R; test: Downregulation of full-length AR mRNA expression in human 22Rv1 cells at 5 uM measured by RT-PCR analysis; type: functional, cell-based
[14] = system: CWR22R; test: Downregulation of AR-V7 mRNA expression in human 22Rv1 cells at 5 uM measured by RT-PCR analysis; type: functional, cell-based
[15] = system: CWR22R; test: Downregulation of PSA mRNA expression in human 22Rv1 cells at 5 uM measured by RT-PCR analysis; type: functional, cell-based
[16] = system: CWR22R; test: Downregulation of KLK2 mRNA expression in human 22Rv1 cells at 5 uM measured by RT-PCR analysis; type: functional, cell-based
[17] = system: CWR22R; test: Downregulation of TMPRSS2 mRNA expression in human 22Rv1 cells at 5 uM measured by RT-PCR analysis; type: functional, cell-based
[18] = system: CWR22R; test: Downregulation of C-MYC mRNA expression in human 22Rv1 cells at 5 uM measured by RT-PCR analysis; type: functional, cell-based
[19] = system: LNCaP; test: Suppression of PSA gene expression in human LNCaP cells assessed as mRNA level at 0.4 to 10 uM measured by luciferase gene reporter assay; type: functional, cell-based; details: dose 0.4-10 µM
[20] = system: CWR22R; test: Antitumor activity against human 22Rv1 cells xenografted in […] mouse assessed as tumor growth inhibition at 50 mg/kg, ip administered once daily for 21 days; type: functional; details: 22Rv1, 504 h, time 21 day, read-out: TGI
[21] = Toxicity in […] mouse xenografted with human 22Rv1 cells assessed as body weight loss at 50 mg/kg, ip administered once daily for 21 days; type: organism-based, CWR22R; details: in vivo, 504 h, time 21 day

Row | Compound | recovery at 2 h, 10 µM [1] | recovery at 2 h, 10 µM [2] | Papp B→A at 2 h, 10 µM [4] | IC50 [5] | IC50 [6] | IC50 [7] | IC50 [9] | also measured
1 | CC(C)NCC(O)COc1ccc(CC(N)=O)cc1 (stereo not given) [ATENOLOL] | 92.7% | 92.3% | – | – | – | – | – | –
2 | CC(C)NCC(O)COc1cccc2ccccc12 (stereo not given) [PROPRANOLOL] | 78.5% | 99.2% | 20.9 ×10⁻⁶ cm/s | – | – | – | – | Papp A→B at 2 h, 10 µM [3]: 22.1 ×10⁻⁶ cm/s
3 | CCCOc1cc(OCCCCN(C)C)cc(Oc2cc3c(cc2NS(=O)(=O)c2ccc(OC)c(OC)c2)n(C)c(=O)n3C)c1 | – | – | – | 13.6 µM | 12.2 µM | 10.8 µM | – | –
4 | C[C@H]1O[C@@H](O[C@H]2[C@@H](O)C[C@H](O[C@H]3[C@@H](O)C[C@H](O[C@H]4CC[C@@]5(C)[C@H](CC[C@@H]6[C@@H]5C[C@@H](O)[C@]5(C)[C@@H](C7=CC(=O)OC7)CC[C@]65O)C4)O[C@@H]3C)O[C@@H]2C)C[C@H](O)[C@@H]1O [DIGOXIN] | 88.8% | 98.6% | 8.97 ×10⁻⁶ cm/s | – | – | – | – | efflux ratio at 2 h, 10 µM [8]: 9.69
5 | COc1ccc(C2CC2)cc1S(=O)(=O)Nc1ccc2c(c1)CCN2C(C)=O | – | – | – | 0.78 µM | 1.07 µM | 0.82 µM | 0.98 µM | IC50 [10]: 1.16 µM; inhibition at 1 µM [11]: < 5%; inhibition at 1 µM [12]: < 5%; Activity [13]: Active; Activity [14]: Active; Activity [15]: Active; Activity [16]: Active; Activity [17]: Active; Activity [18]: Active; Activity [19]: Active; inhibition in vivo at 50 mg/kg [20]: 53%; Activity [21]: Non-Toxic
6 | COc1cccc(NS(=O)(=O)c2ccc3c(c2)CCN3C(C)=O)c1 | – | – | – | – | – | – | 38.4 µM | –

— ChEMBL document CHEMBL5154837, “Discovery, optimization and evaluation of 1-(indolin-1-yl)ethan-1-ones as novel selective TRIM24/BRPF1 bromodomain inhibitors” (Eur J Med Chem, 2022)
